Reference: patent US20120046321A1, “METHODS OF TREATING ATRIAL FIBRILLATION WITH P38 INHIBITOR COMPOUNDS” (INTERMUNE, INC., priority 2005, published 2012)
Entries after “also recorded” stand apart in the source; their conditions may differ.

Key:
[1] = tested on: canines with ventricular tachypacing (VTP)-induced congestive heart failure (CHF); experiment: Open-chest electrophysiology and epicardial mapping (ERP, CV, conduction heterogeneity); type: in vivo, canine
Source text: Briefly, 15 adult mongrel canines (weight 20 to 32 kgs) were divided into 3 groups (n=5 in each group) as follows: Group 1: Normal; Group 2: CHF canines not treated with PFD (or CHF); and Group 3: CHF canines treated with PFD (or CHF+PFD). […] The CHF and CHF+PFD canines underwent placement of a permanent single-chamber pacemaker with the pacing lead positioned in the right ventricular apex followed by radiofrequency catheter ablation of the AV junction to create complete heart block. Canines in the CHF and CHF+PFD groups underwent 3 weeks of VTP at a rate of 220 bpm. Oral PFD (800 mg three times a day) (InterMune, Brisbane, Calif.) was started 2 days prior to the initiation of VTP and was given for the full duration of the pacing period. During the follow-up EP study, each animal was anesthetized with isoflurane and mechanically ventilated. The pacemaker rate was set at 80 bpm at twice diastolic threshold for the entire EP study. The chest was opened with a midline sternotomy. A pericardial cradle was created, and 4 custom-made, epicardial, high-density plaques (left atrial free wall (LAFW); left atrial Bachmann's bundle (LABB); right atrial free wall (RAFW); right atrial Bachmann's bundle (RABB)) were placed over the atria (512 electrodes with an inter-electrode distance of 2.5 mm), similar to the setup described in Verheule S, et al., Circulation 107:2615-22 (2003) and Sih H J, et al. J Am Coll Cardiol. 36:924-31 (2000). Unipolar electrode signals were acquired (sampling rate 2 kHz) and stored with the UnEmap mapping system (University of Auckland, New Zealand). Electrode pairs on the epicardial plaque were used for bipolar stimulation at twice diastolic threshold. Effective refractory periods (ERPs) were measured at 12 atrial sites (6 in LA, 6 in RA) using the single extrastimulus protocol (S1S2) at an 8-beat drive train basic cycle lengths (BCLs) of 200, 300, and 400 ms. During stimulation of the contralateral Bachmann's bundle, conduction velocity (CV) was calculated between pairs of plaque electrodes perpendicular to the activation wavefront with a custom-written software. Verheule S, et al., Am J Physiol Heart Circ Physiol. 2004; 287:H634-44; and Bayly P V, et al., IEEE Trans Biomed Eng. 1998; 45:563-71. Used as a marker of conduction heterogeneity (Verheule S, et al., Am J Physiol Heart Circ Physiol. 2004; 287:H634-44; Bayly P V, et al., IEEE Trans Biomed Eng. 1998; 45:563-71; and Ausma J, et al., Circulation. 1997; 96:3157-63), the phase difference (ms/mm) was defined as the average difference in activation time between a plaque electrode from all of its neighboring electrodes normalized by the inter-electrode distance. Frequency histograms were constructed for the phase differences within an atrial region. The histograms were summarized as the median phase (P50), and the 5th and 95th percentile phase, or P5 and P95 of the distribution, respectively. Two measures were derived to quantify conduction heterogeneity: 1) absolute conduction heterogeneity, defined as P95-P5 (P95-5), and 2) conduction heterogeneity index, defined as the absolute conduction heterogeneity normalized by the median phase, or P95-5/P50.

IL-6 = experiment: Western blot of atrial tissue; type: in vivo, canine; settings: 3 groups

Cc1ccc(=O)n(-c2ccccc2)c1 [PFD, 5-methyl-1-phenyl-2-(1H)-pyridone]
LA CVs compared with the untreated group ([1]; 3 pacing BCLs): non-statistically significant increase
LA ERPs ([1]; BCLs 200, 300, 400 ms, p=NS vs untreated, p<0.03 vs Normal): further lengthening
Conduction heterogeneity index (P95-5/P50) in the LA ([1]; all BCLs, p<0.02 at 300 and 400 ms): reduction
Absolute conduction heterogeneity (P95-5) in the LA ([1]; all BCLs, p<0.04 at 400 ms): reduction
Absolute conduction heterogeneity (P95-5) in the RA ([1]; p<0.003 at 400 ms): decrease
Conduction heterogeneity index (P95-5/P50) in the RA ([1]; p<0.003 at 400 ms): decrease
Local conduction heterogeneity in isochronal activation maps ([1]; pacing CL 300 ms, 4 atrial plaques): less
Expression of IL-6 (IL-6): unchanged; also recorded: not markedly different
